Counter-ions that a name gives are not always drawn.
Target: T1, human DβH (Homo sapiens, UniProt P09172)
T1 construct: SK-N-SH cells (ATCC HTB-11), a human neuroblastoma derived cell line, were used as a source of human DβH; host or cells: SK-N-SH cells
T1 sequence (P09172 1-617): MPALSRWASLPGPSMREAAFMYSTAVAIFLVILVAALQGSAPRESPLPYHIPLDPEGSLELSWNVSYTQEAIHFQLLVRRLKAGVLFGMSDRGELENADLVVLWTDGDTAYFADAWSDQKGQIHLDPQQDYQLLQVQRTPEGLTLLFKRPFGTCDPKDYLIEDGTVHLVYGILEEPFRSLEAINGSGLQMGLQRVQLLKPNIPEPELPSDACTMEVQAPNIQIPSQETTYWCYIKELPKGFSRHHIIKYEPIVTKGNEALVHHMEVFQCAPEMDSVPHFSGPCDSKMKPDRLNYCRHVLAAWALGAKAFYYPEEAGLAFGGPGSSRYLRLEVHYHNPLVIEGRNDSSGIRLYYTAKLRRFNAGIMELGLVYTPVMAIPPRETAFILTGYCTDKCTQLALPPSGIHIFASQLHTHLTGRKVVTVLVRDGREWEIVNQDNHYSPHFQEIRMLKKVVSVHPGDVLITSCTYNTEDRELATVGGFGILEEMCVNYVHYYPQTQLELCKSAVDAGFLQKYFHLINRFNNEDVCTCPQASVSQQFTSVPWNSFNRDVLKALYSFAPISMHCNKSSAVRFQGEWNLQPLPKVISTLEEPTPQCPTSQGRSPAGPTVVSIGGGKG
Experiment: DβH activity (β-hydroxylation of dopamine to noradrenaline) in SK-N-SH cells
Type: cell-based
Conditions: for DβH activity in SK-N-SH cells, Mean ± SEM: compound 5 μM, 50 mM dopamine; for inhibition of DβH activity (in words): 5 μM, as listed in Table 1; for remaining activity at 5 µM: SK-N-SH, 0.75 h, read-out: DβH activity in SK-N-SH cells, Mean ± SEM; for IC50 values against human DβH activity (in words): concentration-dependent decrease in β-hydroxylation of dopamine; for IC50: read-out: IC50 for inhibition of DβH in SK-N-SH cells
Protocol: SK-N-SH cells (ATCC HTB-11), a human neuroblastoma derived cell line, were used as a source of human DβH. SK-N-SH cells cultured in 24 well plates were preincubated for 20 min in a reaction medium containing 200 mM sodium acetate, 30 mM N-ethylmaleimide, 5 μM copper sulphate, 0.5 mg/ml catalase aqueous solution, 1 mM pargyline, 10 mM sodium fumarate and 20 mM ascorbic acid. […] During preincubation and incubation, the cells were continuously shaken and maintained at 37° C. The reaction was terminated by the addition of 0.2 M perchloric acid. The acidified samples were stored at 4° C. before injection into the high pressure liquid chromatograph for the assay of noradrenaline.

With `COc1ccc2c(c1)C[C@@H](n1c(CCN)c[nH]c1=S)CS2.Cl` (racemic) [Compound 30, (R,S)-5-(2-aminoethyl)-1-(6-methoxythiochroman-3-yl)-1,3-droimidazole-2-thione hydrochloride] the “DβH activity in SK-N-SH cells, Mean ± SEM” value was 99.4 ± 2.8 % of control.

In the case of `Cl.NCCc1c[nH]c(=S)n1[C@H]1CSc2ccc(O)cc2C1` (racemic) [Compound 31, (R,S)-5-(2-aminoethyl)-1-(6-hydroxythiochroman-3-yl)-1,3-dihydroimidazole-2-thione hydrochloride], the “DβH activity in SK-N-SH cells, Mean ± SEM” value is reported as 27.3 ± 0.4 % of control.

For `Cl.NCCc1c[nH]c(=S)n1[C@H]1CCc2c(F)cc(F)cc2C1` [Compound 2, (S)-5-(2-aminoethyl)-1-(5,7-difluoro-1,2,3,4-tetrahydronaphthalen-2-yl)-1,3-dihydroimidazole-2-thione hydrochloride], the “inhibition of DβH activity (in words)” value was “markedly inhibit”, the remaining activity at 5 µM was 1.6 ± 0.3% and the “IC50 values against human DβH activity (in words)” value was “low nM range”. It also gave an IC50 of 60 nM.

`Cl.NCc1c[nH]c(=S)n1[C@H]1COc2c(F)cc(F)cc2C1` [Compound 3, (R)-5-aminomethyl-1-(6,8-difluorochroman-3-yl)-1,3-dihydroimidazole-2-thione hydrochloride] was tested, and the “inhibition of DβH activity (in words)” value was “markedly inhibit”, the remaining activity at 5 µM was 4.1 ± 0.6% and the “IC50 values against human DβH activity (in words)” value was “low nM range”. For the same compound, the IC50 was 91 nM.

With `Cl.NCCCc1c[nH]c(=S)n1[C@H]1CCc2c(F)cc(F)cc2C1` [Compound 5, (S)-5-(3-aminopropyl)-1-(5,7-difluoro-1,2,3,4-tetrahydronaphthalen-2-yl)-1,3-dihydroimidazole-2-thione hydrochloride] the “inhibition of DβH activity (in words)” value was “markedly inhibit” and the remaining activity at 5 µM was 8.1 ± 0.3%.

In the case of `Cl.NCCc1c[nH]c(=S)n1[C@H]1COc2c(F)cccc2C1` [Compound 6, (R)-5-(2-aminoethyl)-1-(8-fluorochroman-3-yl)-1,3-dihydroimidazole-2-thione hydrochloride], the “inhibition of DβH activity (in words)” value is reported as “markedly inhibit” and the remaining activity at 5 µM is reported as 6.9 ± 0.6%.

In the case of `Cl.NCCc1c[nH]c(=S)n1[C@H]1COc2ccc(F)cc2C1` [Compound 7, (R)-5-(2-aminoethyl)-1-(6-fluorochroman-3-yl)-1,3-dihydroimidazole-2-thione hydrochloride], the “inhibition of DβH activity (in words)” value is reported as “markedly inhibit” and the remaining activity at 5 µM is reported as 8 ± 0.1%.

With `Cl.NCCc1c[nH]c(=S)n1[C@H]1COc2cc(F)c(F)cc2C1` [Compound 8, (R)-5-(2-aminoethyl)-1-(6,7-difluorochroman-3-yl)-1,3-dihydroimidazole-2-thione hydrochloride] the “inhibition of DβH activity (in words)” value was “markedly inhibit” and the remaining activity at 5 µM was 9.4 ± 0.7%.

In the case of `NCCc1c[nH]c(=S)n1[C@@H]1COc2c(F)cc(F)cc2C1` [Compound 9, (S)-5-(2-aminoethyl)-1-(6,8-difluorochroman-3-yl)-1,3-dihydroimidazole-2-thione hydrochloride], the remaining activity at 5 µM is reported as 50.2 ± 1.9%.

For `Cl.NCCc1c[nH]c(=S)n1[C@H]1COc2c(cc(F)c(F)c2F)C1` [Compound 10, (R)-5-(2-aminoethyl)-1-(6,7,8-trifluorochroman-3-yl)-1,3-dihydroimidazole-2-thione hydrochloride], the “inhibition of DβH activity (in words)” value was “markedly inhibit” and the remaining activity at 5 µM was 8.2 ± 0.7%.

In the case of `COc1cc(Cl)cc2c1OC[C@H](n1c(CCN)c[nH]c1=S)C2` [Compound 11, (R)-5-(2-aminoethyl)-1-(6-chloro-8-methoxychroman-3-yl)-1,3-dihydroimidazole-2-thione hydrochloride], the remaining activity at 5 µM is reported as 36.7 ± 4.4%.

In the case of `Cl.NCCc1c[nH]c(=S)n1[C@H]1COc2ccccc2C1` [Compound 12, (R)-5-(2-aminoethyl)-1-chroman-3-yl-1,3-dihydroimidazole-2-thione hydrochloride], the “inhibition of DβH activity (in words)” value is reported as “markedly inhibit” and the remaining activity at 5 µM is reported as 3 ± 0.5%.

Work on `COc1cc(Cl)c2c(c1)C[C@@H](n1c(CCN)c[nH]c1=S)CO2` [Compound 13, (R)-5-(2-aminoethyl)-1-(6-methoxy-8-chlorochroman-3-yl)-1,3-dihydroimidazole-2-thione hydrochloride] yielded a remaining activity at 5 µM of 94 ± 3.1%.

`CC(=O)Nc1ccc2c(c1)C[C@@H](n1c(CCN)c[nH]c1=S)CO2` [Compound 14, (R)-5-(2-aminoethyl)-1-[6-(acetylamino)chroman-3-yl]-1,3-dihydroimidazole-2-thione hydrochloride] gave a remaining activity at 5 µM of 77.9 ± 2.2%.

Work on `NCCc1c[nH]c(=S)n1[C@H]1COc2cc(Cc3ccccc3)c(O)cc2C1` [Compound 15, (R)-5-(2-aminoethyl)-1-(6-hydroxy-7-benzylchroman-3-yl)-1,3-dihydroimidazole-2-thione hydrochloride] yielded a remaining activity at 5 µM of 86.1 ± 2.7%.

With `Cl.NCCc1c[nH]c(=S)n1[C@H]1COc2ccc(O)cc2C1` [Compound 16, (R)-5-(2-aminoethyl)-1-(6-hydroxychroman-3-yl)-1,3-dihydroimidazole-2-thione hydrochloride] the “inhibition of DβH activity (in words)” value was “markedly inhibit” and the remaining activity at 5 µM was 0%.

`NCCc1c[nH]c(=S)n1[C@H]1COc2c(cccc2[N+](=O)[O-])C1` [Compound 17, (R)-5-(2-aminoethyl)-1-(8-nitrochroman-3-yl)-1,3-dihydroimidazole-2-thione hydrochloride] gave a remaining activity at 5 µM of 53.2 ± 3.9%.

`NCCc1c[nH]c(=S)n1[C@H]1COc2ccc([N+](=O)[O-])cc2C1` [Compound 18, (R)-5-(2-aminoethyl)-1-(6-nitrochroman-3-yl)-1,3-dihydroimidazole-2-thione hydrochloride] was tested, and the remaining activity at 5 µM was 94.8 ± 1.2%.

For `COc1cccc2c1OC[C@H](n1c(CCN)c[nH]c1=S)C2.Cl` [Compound 19, (R)-5-(2-aminoethyl)-1-(8-methoxychroman-3-yl)-1,3-dihydroimidazole-2-thione hydrochloride], the “inhibition of DβH activity (in words)” value was “markedly inhibit” and the remaining activity at 5 µM was 6.9 ± 0.5%.

Compound `NCCc1c[nH]c(=S)n1[C@H]1CCc2ccccc2C1` [Compound 20, (S)-5-(2-aminoethyl)-1-(1,2,3,4-tetrahydronaphthalen-2-yl)-1,3-dihydroimidazole-2-thione hydrochloride] has a remaining activity at 5 µM of 16.8 ± 4.8%.

`NCCc1c[nH]c(=S)n1[C@H]1COc2c(O)cccc2C1` [Compound 21, (R)-5-(2-aminoethyl)-1-(8-hydroxychroman-3-yl)-1,3-dihydroimidazole-2-thione hydrochloride] showed a remaining activity at 5 µM of 125 ± 6.5%.

Compound `NCc1c[nH]c(=S)n1[C@H]1COc2ccc(O)cc2C1` [Compound 22, (R)-5-aminomethyl-1-(6-hydroxychroman-3-yl)-1,3-dihydroimidazole-2-thione hydrochloride] has a remaining activity at 5 µM of 17.8 ± 2.1%.

With `COc1ccc2c(c1)C[C@@H](n1c(CCN)c[nH]c1=S)CO2` [Compound 23, (R)-5-(2-aminoethyl)-1-(6-methoxychroman-3-yl)-1,3-dihydroimidazole-2-thione hydrochloride] the remaining activity at 5 µM was 54.5 ± 9.9%.

With `Cl.NCc1c[nH]c(=S)n1[C@H]1COc2ccccc2C1` [Compound 24, (R)-5-aminomethyl-1-chroman-3-yl-1,3-dihydroimidazole-2-thione hydrochloride] the “inhibition of DβH activity (in words)” value was “markedly inhibit” and the remaining activity at 5 µM was 0%.

Work on `COc1ccc2c(c1)C[C@@H](n1c(CCNCc3ccccc3)c[nH]c1=S)CO2` [Compound 25, (R)-5-(2-Benzylaminoethyl)-1-(6-methoxychroman-3-yl)-1,3-dihydroimidazole-2-thione hydrochloride] yielded a remaining activity at 5 µM of 66 ± 4.5%.

In the case of `Cl.Oc1ccc2c(c1)C[C@@H](n1c(CCNCc3ccccc3)c[nH]c1=S)CO2` [Compound 26, (R)-5-(2-Benzylaminoethyl)-1-(6-hydroxychroman-3-yl)-1,3-dihydroimidazole-2-thione hydrochloride], the “inhibition of DβH activity (in words)” value is reported as “markedly inhibit” and the remaining activity at 5 µM is reported as 4.5 ± 1.9%.

Work on `CNCCc1c[nH]c(=S)n1[C@H]1COc2ccc(O)cc2C1` [Compound 27, (R)-1-(6-Hydroxychroman-3-yl)-5-(2-methylaminoethyl)-1,3-dihydroimidazole-2-thione hydrochloride] yielded a remaining activity at 5 µM of 15.5 ± 5.8%.

`CNCCc1c[nH]c(=S)n1[C@H]1COc2c(F)cc(F)cc2C1.Cl` [Compound 28, (R)-1-(6,8-Difluorochroman-3-yl)-5-(2-methylaminoethyl)-1,3-dihydroimidazole-2-thione hydrochloride] was tested, and the “inhibition of DβH activity (in words)” value was “markedly inhibit” and the remaining activity at 5 µM was 2.6 ± 1.6%.

In the case of `CNCCc1c[nH]c(=S)n1[C@H]1COc2ccccc2C1.Cl` [Compound 29, (R)-1-Chroman-3-yl-5-(2-methylaminoethyl)-1,3-dihydroimidazole-2-thione hydrochloride], the “inhibition of DβH activity (in words)” value is reported as “markedly inhibit” and the remaining activity at 5 µM is reported as 2.2 ± 2.5%.

From patent US7259271B2, “Peripherally-selective inhibitors of dopamine-β-hydroxylase and method of their preparation” (Portela & C.A., S.A., priority 2002, dated 2007)
